ChEMBL document CHEMBL1126751, “Studies on quinazolines. 5. 2,3-dihydroimidazo[1,2-c]quinazoline derivatives: a novel class of potent and selective alpha 1-adrenoceptor antagonists and antihypertensive agents” (J Med Chem, 1993)
Active and inactive are the calls of the source. No cut-off for these calls is given here.

Tests used:
[1] = target: T1, Adrenergic receptor alpha-1 (Rattus norvegicus, UniProt P15823+P23944+P43140); assay: Binding affinity against alpha-1 adrenergic receptor by measuring displacement of [3H]prazosin from rat brain cortex membranes (in vitro).; assay type: cell membranes, Membrane
T1 sequence (P15823 whole entry): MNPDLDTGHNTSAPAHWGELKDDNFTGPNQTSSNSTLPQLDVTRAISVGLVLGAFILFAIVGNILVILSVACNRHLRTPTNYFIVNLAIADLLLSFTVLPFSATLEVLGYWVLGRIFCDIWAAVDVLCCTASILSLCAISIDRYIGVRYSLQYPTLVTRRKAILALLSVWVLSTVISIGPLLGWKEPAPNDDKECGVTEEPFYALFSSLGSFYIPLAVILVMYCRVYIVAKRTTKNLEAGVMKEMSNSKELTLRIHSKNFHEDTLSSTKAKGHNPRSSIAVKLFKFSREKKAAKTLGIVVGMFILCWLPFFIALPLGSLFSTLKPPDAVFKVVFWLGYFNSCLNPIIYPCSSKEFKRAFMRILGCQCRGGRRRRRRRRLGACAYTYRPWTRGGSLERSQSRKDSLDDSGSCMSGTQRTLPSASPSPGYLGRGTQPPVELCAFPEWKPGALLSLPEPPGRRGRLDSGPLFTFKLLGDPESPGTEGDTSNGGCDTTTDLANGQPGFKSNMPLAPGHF
T1 sequence (P23944 whole entry): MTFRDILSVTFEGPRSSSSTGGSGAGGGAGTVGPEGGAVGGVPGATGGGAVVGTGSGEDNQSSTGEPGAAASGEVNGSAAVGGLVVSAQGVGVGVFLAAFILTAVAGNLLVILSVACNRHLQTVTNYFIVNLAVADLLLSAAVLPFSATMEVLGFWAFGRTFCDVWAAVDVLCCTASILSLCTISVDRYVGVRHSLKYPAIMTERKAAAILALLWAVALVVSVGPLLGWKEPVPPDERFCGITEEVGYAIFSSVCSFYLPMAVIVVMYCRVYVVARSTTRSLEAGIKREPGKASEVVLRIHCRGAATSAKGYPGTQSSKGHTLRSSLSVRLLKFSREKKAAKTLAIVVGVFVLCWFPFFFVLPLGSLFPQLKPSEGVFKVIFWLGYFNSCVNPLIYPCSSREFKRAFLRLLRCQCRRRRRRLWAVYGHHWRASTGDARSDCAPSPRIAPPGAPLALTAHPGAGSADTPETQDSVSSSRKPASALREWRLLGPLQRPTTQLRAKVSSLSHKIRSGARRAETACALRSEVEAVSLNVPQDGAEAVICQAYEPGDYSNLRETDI
T1 sequence (P43140 whole entry): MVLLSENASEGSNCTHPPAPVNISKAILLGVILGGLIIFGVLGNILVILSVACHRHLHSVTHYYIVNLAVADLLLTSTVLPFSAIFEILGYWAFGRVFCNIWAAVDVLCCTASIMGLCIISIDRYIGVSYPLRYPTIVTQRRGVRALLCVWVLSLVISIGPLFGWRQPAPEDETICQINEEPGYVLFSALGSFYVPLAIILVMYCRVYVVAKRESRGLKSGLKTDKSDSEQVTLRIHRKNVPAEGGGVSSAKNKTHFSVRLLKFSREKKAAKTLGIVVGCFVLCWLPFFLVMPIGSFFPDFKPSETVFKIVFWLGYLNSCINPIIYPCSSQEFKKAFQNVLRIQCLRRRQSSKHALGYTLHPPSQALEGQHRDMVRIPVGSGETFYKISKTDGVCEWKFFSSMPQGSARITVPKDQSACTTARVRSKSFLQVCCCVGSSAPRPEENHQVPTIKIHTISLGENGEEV

[2] = target: T2, Adrenergic receptor alpha-2 (Rattus norvegicus, UniProt P22086+P19328+P22909); assay: Binding affinity against alpha-2 adrenergic receptor by measuring displacement of [3H]clonidine from rat brain cortex membranes (in vitro).; assay type: cell membranes, Membrane
T2 sequence (P22086 whole entry): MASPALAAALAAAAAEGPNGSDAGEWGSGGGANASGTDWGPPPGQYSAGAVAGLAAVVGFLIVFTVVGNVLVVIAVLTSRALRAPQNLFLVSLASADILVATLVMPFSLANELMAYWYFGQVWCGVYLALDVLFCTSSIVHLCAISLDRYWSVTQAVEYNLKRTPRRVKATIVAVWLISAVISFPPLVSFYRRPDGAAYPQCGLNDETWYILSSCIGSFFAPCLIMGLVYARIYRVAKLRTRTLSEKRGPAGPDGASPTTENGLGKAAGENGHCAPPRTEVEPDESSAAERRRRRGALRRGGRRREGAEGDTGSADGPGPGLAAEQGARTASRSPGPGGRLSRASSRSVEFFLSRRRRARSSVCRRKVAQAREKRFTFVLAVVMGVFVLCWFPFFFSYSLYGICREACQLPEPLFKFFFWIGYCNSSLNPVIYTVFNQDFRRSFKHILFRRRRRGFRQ
T2 sequence (P19328 whole entry): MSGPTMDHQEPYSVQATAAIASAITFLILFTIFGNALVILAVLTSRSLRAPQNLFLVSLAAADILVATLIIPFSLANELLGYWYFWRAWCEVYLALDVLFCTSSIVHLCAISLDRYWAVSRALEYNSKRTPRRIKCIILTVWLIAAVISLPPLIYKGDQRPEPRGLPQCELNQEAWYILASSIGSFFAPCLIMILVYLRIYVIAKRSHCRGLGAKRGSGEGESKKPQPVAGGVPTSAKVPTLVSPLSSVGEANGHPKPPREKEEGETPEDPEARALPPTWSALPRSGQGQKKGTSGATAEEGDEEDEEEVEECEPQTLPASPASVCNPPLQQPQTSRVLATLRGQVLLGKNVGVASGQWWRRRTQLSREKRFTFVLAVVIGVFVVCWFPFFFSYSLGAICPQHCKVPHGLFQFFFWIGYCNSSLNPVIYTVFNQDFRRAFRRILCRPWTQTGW
T2 sequence (P22909 whole entry): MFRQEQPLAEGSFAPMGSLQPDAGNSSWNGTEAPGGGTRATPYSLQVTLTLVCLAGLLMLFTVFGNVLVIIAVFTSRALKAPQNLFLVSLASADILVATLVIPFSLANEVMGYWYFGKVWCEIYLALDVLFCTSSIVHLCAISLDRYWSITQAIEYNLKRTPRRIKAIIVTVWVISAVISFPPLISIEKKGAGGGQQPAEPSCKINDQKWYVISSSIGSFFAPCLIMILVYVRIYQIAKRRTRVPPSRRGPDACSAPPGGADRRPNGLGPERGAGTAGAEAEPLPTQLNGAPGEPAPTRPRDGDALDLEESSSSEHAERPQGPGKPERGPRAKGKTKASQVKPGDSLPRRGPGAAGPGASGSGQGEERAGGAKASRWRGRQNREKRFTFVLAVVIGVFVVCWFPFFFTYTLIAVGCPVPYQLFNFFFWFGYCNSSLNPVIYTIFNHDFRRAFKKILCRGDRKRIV

Rattus norvegicus [3] = assay: Blood pressure lowering activity in spontaneously hypertensive rats (SHR) after 1 hour of administration (iv) of dose of 0.5 mg/kg […]; assay type: functional
Rattus norvegicus [4] = assay: Blood pressure lowering activity in spontaneously hypertensive rats (SHR) after 6 hours of administration (iv) of dose of 0.5 mg/kg […]; assay type: functional
Rattus norvegicus [5] = assay: Blood pressure lowering activity in spontaneously hypertensive rats (SHR) after 1 hour of administration (iv) of dose of 4.0 mg/kg; Did not last more than 1/2 hr […]; assay type: functional, organism-based; design: dose 4 mg/kg
Rattus norvegicus [6] = assay: Blood pressure lowering activity in spontaneously hypertensive rats (SHR) after 6 hours of administration (iv) of dose of 4.0 mg/kg; Did not last more than 1/2 hr […]; assay type: functional, organism-based; design: dose 4 mg/kg
Rattus norvegicus [7] = assay: Blood pressure lowering activity in spontaneously hypertensive rats (SHR) after 1 hour of administration (iv) of dose of 4.0 mg/kg […]; assay type: functional
Rattus norvegicus [8] = assay: Blood pressure lowering activity in spontaneously hypertensive rats (SHR) after 6 hours of administration (iv) of dose of 4.0 mg/kg […]; assay type: functional
Rattus norvegicus [9] = assay: Blood pressure lowering activity in spontaneously hypertensive rats (SHR) after 1 hour of administration (iv) of dose of 1.0 mg/kg; Did not last more than 1/2 hr […]; assay type: functional, organism-based; design: dose 1 mg/kg
Rattus norvegicus [10] = assay: Blood pressure lowering activity in spontaneously hypertensive rats (SHR) after 6 hours of administration (iv) of dose of 1.0 mg/kg; Did not last more than 1/2 hr […]; assay type: functional, organism-based; design: dose 1 mg/kg
Rattus norvegicus [11] = assay: Blood pressure lowering activity in spontaneously hypertensive rats (SHR) after 6 hours of administration (iv) of dose of 0.5 mg/kg; Did not last more than 1/2 hr […]; assay type: functional, organism-based; design: dose 0.5 mg/kg

Ki [1] [nM] | Ki [2] [nM] | SMILES | MBP (Rattus norvegicus [5]) | MBP (Rattus norvegicus [6]) | further results
0.36 | 1419 | COc1ccccc1N1CCN(CC2CN=C3c4ccccc4N(C)C(=O)N32)CC1 (configuration not stated) | – | – | MBP (Rattus norvegicus [3]): -32.5 mmHg; MBP (Rattus norvegicus [4]): -28.3 mmHg
1.7 | 962 | O=C1Nc2ccccc2C2=NCC(CN3CCN(c4ccccc4)CC3)N12 (configuration not stated) | – | – | –
5.76 | 302 | COc1cccc(N2CCN(CC3CN=C4c5ccccc5NC(=O)N43)CC2)c1 (configuration not stated) | inactive | inactive | –
> 100 | – | COC1=Nc2ccccc2C2=NCC(CN3CCN(c4ccc(OC)cc4)CC3)N12 (configuration not stated) | inactive | inactive | –
30 | 1694 | COc1cc2c(cc1OC)C1=NC(CN3CCN(c4ccccc4)CC3)CN1C(=O)N2 (configuration not stated) | – | – | MBP (Rattus norvegicus [7]): -38.2 mmHg; MBP (Rattus norvegicus [8]): -12.6 mmHg
35.8 | 5011 | O=C1Nc2ccccc2C2=NC(CN3CCC(Cc4ccccc4)CC3)CN12 (configuration not stated) | – | inactive | MBP (Rattus norvegicus [7]): -30.6 mmHg
251.2 | – | O=C1Nc2ccccc2C2=NC(CN3CCC4(CCCCC4)CC3)CN12 (configuration not stated) | inactive | inactive | –
14.4 | 391 | O=C1Nc2ccccc2C2=NC(CN3CCN(c4ccc(F)cc4)CC3)CN12 (configuration not stated) | inactive | – | –
48.8 | 8356 | COc1cccc(N2CCN(CC3CN=C4c5ccccc5N=C(SC)N43)CC2)c1 (configuration not stated) | – | – | MBP (Rattus norvegicus [9]): inactive; MBP (Rattus norvegicus [10]): inactive
0.58 | 387 | O=C1Nc2ccccc2C2=NCC(CN3CCN(c4ccccc4Cl)CC3)N12 (configuration not stated) | – | – | MBP (Rattus norvegicus [3]): -14.6 mmHg; MBP (Rattus norvegicus [4]): -15 mmHg
0.07 | 472 | COC1=Nc2ccccc2C2=NCC(CN3CCN(c4ccccc4OC)CC3)N12 (configuration not stated) | – | – | MBP (Rattus norvegicus [3]): -17.2 mmHg; MBP (Rattus norvegicus [11]): inactive
158 | – | SC1=Nc2ccccc2C2=NC(CN3CCN(c4ccccc4)CC3)CN12 (configuration not stated) | – | – | MBP (Rattus norvegicus [7]): -33.9 mmHg; MBP (Rattus norvegicus [8]): -22.5 mmHg
0.68 | 473 | CN1C(=O)N2CC(CN3CCN(c4ccccc4Cl)CC3)N=C2c2ccccc21 (configuration not stated) | – | – | MBP (Rattus norvegicus [3]): -27.5 mmHg; MBP (Rattus norvegicus [4]): -22.5 mmHg
0.34 | 223 | CSC1=Nc2ccccc2C2=NCC(CN3CCN(c4ccccc4Cl)CC3)N12 (configuration not stated) | – | – | MBP (Rattus norvegicus [9]): inactive; MBP (Rattus norvegicus [10]): inactive
1.35 | 952 | COC1=Nc2ccccc2C2=NCC(CN3CCN(c4ccccc4)CC3)N12 (configuration not stated) | – | – | MBP (Rattus norvegicus [9]): inactive; MBP (Rattus norvegicus [10]): inactive
586 | – | O=C1Nc2ccccc2C2=NC(CNC3CCN(Cc4ccccc4)CC3)CN12 (configuration not stated) | inactive | inactive | –
19.4 | – | COc1cccc(N2CCN(CC3CN=C4c5ccccc5N(C)C(=O)N43)CC2)c1 (configuration not stated) | inactive | inactive | –
– | – | O=C(c1ccc(F)cc1)C1CCN(CC2CN3C(=O)Nc4ccccc4C3=N2)CC1 (configuration not stated) | – | – | MBP (Rattus norvegicus [7]): -30 mmHg; MBP (Rattus norvegicus [8]): -13.8 mmHg
> 10 | – | CSC1=Nc2ccccc2C2=NCC(CN3CCN(c4ccccc4)CC3)N12 (configuration not stated) | – | – | MBP (Rattus norvegicus [9]): inactive; MBP (Rattus norvegicus [10]): inactive
> 100 | – | COc1ccc(N2CCN(CC3CN=C4c5ccccc5N=C(SC)N43)CC2)cc1 (configuration not stated) | – | – | MBP (Rattus norvegicus [9]): inactive; MBP (Rattus norvegicus [10]): inactive
0.37 | 1740 | COc1ccccc1N1CCN(CC2CN3C(=O)N(C)c4ccccc4C3=N2)CC1 (configuration not stated) | – | – | MBP (Rattus norvegicus [3]): -38.4 mmHg; MBP (Rattus norvegicus [4]): -28.4 mmHg
95.9 | – | O=C1Nc2ccccc2C2=NC(CN3CCN(c4ccccn4)CC3)CN12 (configuration not stated) | inactive | inactive | –
> 100 | – | COC1=Nc2ccccc2C2=NCC(CN3CCN(c4cccc(OC)c4)CC3)N12 (configuration not stated) | inactive | inactive | –
0.11 | 116 | COC1=Nc2ccccc2C2=NCC(CN3CCN(c4ccccc4Cl)CC3)N12 (configuration not stated) | – | – | MBP (Rattus norvegicus [3]): -28.3 mmHg; MBP (Rattus norvegicus [11]): inactive
– | – | COc1cccc(N2CCN(CC3CN4C(=O)Nc5ccccc5C4=N3)CC2)c1 (configuration not stated) | – | – | MBP (Rattus norvegicus [7]): -20.3 mmHg; MBP (Rattus norvegicus [8]): -8.5 mmHg
> 50 | – | COc1ccc(N2CCN(CC3CN=C4c5ccccc5NC(=O)N43)CC2)cc1 (configuration not stated) | inactive | inactive | –
